Number of arrhythmias and side effects data for two compounds are collected here from US20220395528A1, “AGENT FOR PREVENTING OR TREATING […] DEVICE FOR PREVENTING OR TREATING ARRHYTHMIA” (SCHOOL JURIDICAL PERSON THE KITASATO INSTITUTE, priority 2019, published 2022).

In one data set the test system is Pigs. The experiment in a line: Number of arrhythmias on electrocardiogram in pigs after balloon occlusion of the anterior descending branch of the left coronary artery, gas inhalation (Experiment Example 1). Conditions: coronary blood flow interrupted, counted for 10 minutes of inhalation versus the preceding 10 minutes, FIG. 3. It is filed as in vivo. As for the experimental part:
Pigs were anesthetized with pentobarbital, and electrocardiogram measurement was performed. After tracheal intubation, an artificial respirator was connected, and respiratory management was performed. A catheter was inserted into the descending aorta from the inguinal region, a balloon was placed in the anterior descending branch of the left coronary artery, and the balloon was inflated to interrupt the blood flow. After 40 minutes, an electrocardiogram was measured without doing anything for 10 minutes, the number of arrhythmias was counted, and after that, for 10 minutes, the number of arrhythmias was counted in the same manner for a control group, a hydrogen inhalation group, a nitric oxide inhalation group, or a combination group (hydrogen and nitric oxide inhalation group) in a divided manner.
A gas inhaled by the control group was a mixed gas (oxygen concentration of 35%) of oxygen and nitrogen and containing no hydrogen or nitric oxide.

For data set [1] the following is noted: high-concentration hydrogen inhaled, gaseous hydrogen used as a gas for diving; cited from earlier work.

SMILES strings stand for the structures.

Consider `[N]=O` [nitric oxide, reference compound], for which the number of arrhythmias result with Pigs (mixed gas of air and nitric oxide, nitric oxide concentration 80 ppm) was “increase”.

For `[HH]` [hydrogen], the side effects result in data set [1] is given as “no side effects”. Besides, in the data set with Pigs (mixed gas of air and hydrogen, hydrogen concentration 1.3%), the number of arrhythmias result was “decreased”.
